Data from patent US20080311048A1, “Imaging Agent” (ISIS INNOVATION LTD., priority 2005, published 2008).

Test system: left hemisphere of rat brains injected with Interleukin-1β (selectin expression)
Test: MRI scans of rat brains after interleukin-1β injection into the left hemisphere
Conditions: in vivo
Method: The magnetic particles of the present invention can be used in a number of different methods. In particular, sugars conjugated to ultra small super paramagnetic iron oxide provide more sensitive detection of cerebroendothelial cell activation than know contrast agents such as Gd-DTPA-B(sLEex)A. In particular conjugated magnetic particles in accordance with the present invention were used in MRI scans. Interleukin-1β was injected into the left hemisphere of rat brains. Interleukin beta was used to induce an inflammatory response in the left hemispheres. All samples were subjected to MRI scans. Controls were carried out using Gd alone, or superparamagnetic particles alone. Two different conjugates, one of which having a disaccharide and one of which having Sialyl Lewis X, both in accordance with the present invention were tested. […] The control with Gd (shown in FIG. 2) confirmed that there was no breakdown of the blood brain barrier. […] Thus, the conjugates of the present invention allowed imaging of the areas of the brain that had been injected with interleukin-1β, and which would be expected to show greater levels of selectin expression.

Sialyl Lewis X
MRI scan: asymmetry between left and right cranial hemispheres: asymmetry, being darker in the left hemisphere than the right
